# Entries after “also recorded” stand apart in the source; their conditions may differ.
# Tested on: HSP27 phosphorylation at Ser78 in HeLa cells
# Assay: Drug-induced HSP27 Ser78 phosphorylation, Western blot
# Format: cell-based, human
# Settings: absence of heat shock, 50 μg/ml 1 h
row,SMILES,Enhancement of HSP27 phosphorylation (in words)
1,COC(=O)COc1cc(-c2oc3cc(O)cc(O)c3c(=O)c2O)ccc1O [Compound D1],did not activate HSP27 phosphorylation
2,COc1cc(O)c2c(=O)c(O)c(-c3ccc(O)c(O)c3)oc2c1 [Compound D7],showed enhancement of HSP27 phosphorylation
3,COC(=O)COc1cc(O)c2c(=O)c(O)c(-c3ccc(O)c(O)c3)oc2c1 [Compound D10],showed enhancement of HSP27 phosphorylation
4,COc1cc(-c2oc3cc(O)cc(O)c3c(=O)c2O)ccc1O [Compound D2],did not activate HSP27 phosphorylation
5,"O=c1c(O)c(-c2ccc(O)c(O)c2)oc2cc(O)cc(O)c12 [Quercetin, reference compound]",enhances HSP27 phosphorylation at Ser78

# Tested on: heat induced HSP70 expression in Jurkat cells
# Assay: Inhibition of heat-induced HSP70 expression, Western blot
# Format: cell-based, human
# Settings: pre-heat treatment 50 μg/ml
row,SMILES,Inhibition of HSP70 induction (in words)
1,O=C(O)COc1cc(O)c2c(=O)c(O)c(-c3ccc(O)c(O)c3)oc2c1 [Compound D9],does not inhibit HSP70; also recorded: showed no ability to inhibit HSP70 induction

# — article PMC2763579 (Journal of medicinal chemistry, 2009)
